{"source": "paper PMC12394750", "about": "“2H-1,4-Benzoxazin-3(4H)-one linked 1,2,3-triazole derivatives and their study on inducing DNA damage in tumor cells” (Frontiers in Pharmacology, 2025)", "origin": "cited, not measured here", "key": {"A549 cell": {"tested_on": "A549 cell", "parameters": "method as in Zhou et al., 2014", "details": "ref Zhou et al., 2014; read-out: Inhibition of A549 cell proliferation, IC50; cited from earlier work"}, "MCF-7 cells": {"tested_on": "MCF-7 cells", "parameters": "method as in Nagavelli et al., 2016", "details": "ref Nagavelli et al., 2016; cited from earlier work"}, "HeLa cells": {"tested_on": "HeLa cells", "parameters": "method as in Nagavelli et al., 2016", "details": "ref Nagavelli et al., 2016; cited from earlier work"}, "A549 cancer cells": {"tested_on": "A549 cancer cells", "parameters": "method as in Feng et al., 2010", "details": "ref Feng et al., 2010; cited from earlier work"}, "DLD-1 cancer cells": {"tested_on": "DLD-1 cancer cells", "parameters": "method as in Feng et al., 2010", "details": "ref Feng et al., 2010; cited from earlier work"}, "MV4-11 cancer cells": {"tested_on": "MV4-11 cancer cells", "parameters": "method as in Feng et al., 2010", "details": "ref Feng et al., 2010; cited from earlier work"}, "[1]": {"target": "mineralocorticoid receptor", "parameters": "method as in Hasui et al., 2011", "details": "ref Hasui et al., 2011; read-out: Mineralocorticoid receptor antagonist IC50; cited from earlier work"}}, "data": [{"smiles": "COc1cc(/C=C/C(=O)c2ccc3c(c2)NC(=O)CO3)cc(OC)c1", "note": "[compound 3c]", "values": [{"measurement": "IC50", "setting": "A549 cell", "result": 3290, "unit": "nM"}]}, {"smiles": "COc1cccc(-c2ccc3c(c2)OCC(=O)N3Cc2cn(-c3cc(Cl)cc(Cl)c3)nn2)c1", "note": "[compound 5b]", "values": [{"measurement": "Cytotoxicity against MCF-7, IC50", "setting": "MCF-7 cells", "result": 17.08, "unit": "µg/mL"}, {"measurement": "Cytotoxicity against HeLa, IC50", "setting": "HeLa cells", "result": 15.38, "unit": "µg/mL"}]}, {"smiles": "O=C1COc2ccc(-c3[nH]c(-c4ccc(C(F)(F)F)cc4)nc3-c3ccccc3)cc2N1", "note": "[compound 9c]", "values": [{"measurement": "Viability of A549 cancer cells", "setting": "A549 cancer cells", "result": "significantly reduced"}, {"measurement": "Viability of DLD-1 cancer cells", "setting": "DLD-1 cancer cells", "result": "significantly reduced"}, {"measurement": "Viability of MV4-11 cancer cells", "setting": "MV4-11 cancer cells", "result": "significantly reduced"}]}, {"smiles": "Cc1cc(F)ccc1-n1nc(C(F)(F)F)cc1-c1ccc2c(c1)NC(=O)CO2", "note": "[compound 14n]", "values": [{"measurement": "IC50", "setting": "[1]", "result": 41, "unit": "nM"}]}]}
